# Legend:
# [1] = system: Mycobacterium tuberculosis; test: Antimycobacterial activity against Mycobacterium tuberculosis H37Rv ATCC 27294 after 28 days by agar dilution method; format: functional; settings: H37Rv ATCC 27294, 672 h
# [2] = Cytotoxicity against HEK293T cells assessed as cell growth inhibition at 50 ug/mL after 72 hrs by MTT assay; format: cell-based, HEK-293T; settings: human, read-out: GI
SMILES,MIC ([1]; read-out: MIC) [µg/mL],MIC ([1]; read-out: MIC100) [µM],"inhibition at 72 h, 50 ug/mL [2] [%]",MIC50 [1] [µM]
O=C(NCc1ccc(Oc2ccc(OC(F)(F)F)cc2)cc1)c1c(-c2ccc3sc4ccccc4c3c2)nc2ccccn12,12.5,,,
O=C(NCc1ccc(N2CCC(Cc3ccccc3)CC2)cc1)c1c(-c2ccc3sc4ccccc4c3c2)nc2ccccn12,0.78,1.3,34.8,
O=C(NCc1ccccc1)c1c(-c2ccc3sc4ccccc4c3c2)nc2ccccn12,3.13,7.21,34.6,
CC(C)(C)c1ccc(Oc2ccc(CNC(=O)c3c(-c4ccc5sc6ccccc6c5c4)nc4ccccn34)cc2)cc1,25,,,
Cc1ccc(CNC(=O)c2c(-c3ccc4sc5ccccc5c4c3)nc3ccccn23)cc1,12.5,,,
O=C(NCc1ccc(Oc2ccc(Cl)cc2)cc1)c1c(-c2ccc3sc4ccccc4c3c2)nc2ccccn12,25,,,
O=C(NCc1ccc(N2CCSCC2)cc1)c1c(-c2ccc3sc4ccccc4c3c2)nc2ccccn12,25,,,
CCc1nc2ccccn2c1C(=O)NCc1ccc(Oc2ccc(OC(F)(F)F)cc2)cc1,,,,0.013
O=C(NCc1ccc(N2CCN(c3ccc(Cl)cc3)CC2)cc1)c1c(-c2ccc3sc4ccccc4c3c2)nc2ccccn12,1.56,2.5,24.4,
O=C(NCc1ccc(Cl)cc1)c1c(-c2ccc3sc4ccccc4c3c2)nc2ccccn12,25,,,
COc1ccc(CNC(=O)c2c(-c3ccc4sc5ccccc5c4c3)nc3ccccn23)cc1,6.25,,37,
O=C(NCc1ccc(N2CCN(Cc3ccccc3)CC2)cc1)c1c(-c2ccc3sc4ccccc4c3c2)nc2ccccn12,25,,,
COc1ccc(CCNC(=O)c2c(C)nc3ccccn23)cc1,,,,2.63
CC(C)(C)c1ccc(CNC(=O)c2c(-c3ccc4sc5ccccc5c4c3)nc3ccccn23)cc1,1.56,3.22,18.8,
CC[C@@H](CO)NCCN[C@@H](CC)CO [ETHAMBUTOL],3.13,,,
Cc1nc2ccccn2c1C(=O)NCc1ccccc1,,,,1.86
O=C(NCc1ccc(N2CCN(c3ccccc3F)CC2)cc1)c1c(-c2ccc3sc4ccccc4c3c2)nc2ccccn12,25,,,
O=C(NCc1ccc(Oc2ccc(F)cc2)cc1)c1c(-c2ccc3sc4ccccc4c3c2)nc2ccccn12,25,,,
O=C(NCc1ccc(OC(F)(F)F)cc1)c1c(-c2ccc3sc4ccccc4c3c2)nc2ccccn12,25,,,
O=C(NCc1ccc(C(F)(F)F)cc1)c1c(-c2ccc3sc4ccccc4c3c2)nc2ccccn12,12.5,,,
NNC(=O)c1ccncc1 [ISONIAZID],0.1,,,
NC(=O)c1cnccn1 [PYRAZINAMIDE],50,,,
O=C(NCc1ccc(N2CCOCC2)cc1)c1c(-c2ccc3sc4ccccc4c3c2)nc2ccccn12,25,,,
O=C(NCc1ccc(F)cc1)c1c(-c2ccc3sc4ccccc4c3c2)nc2ccccn12,3.13,,25.8,
O=C(NCc1ccc(Oc2ccccc2)cc1)c1c(-c2ccc3sc4ccccc4c3c2)nc2ccccn12,6.25,,38.4,
